The assay has as its system BDF1 mice, P388 leukemia ip, median survival T/C. Kind of assay: NCI In Vivo Anticancer Drug Screen. Data for tumor model P388 Leukemia (intraperitoneal) in B6D2F1 (BDF1) mice. To be noted: endpoint: median survival time, higher = longer survival. The procedure, abridged:
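Reported as T/C, where T is the survival measurement in dosed animals and C the same measurement in vehicle controls.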

Setting [1] is: dose: 12.5 mg/kg/injection, schedule: Q04DX003 (ip), vehicle: saline.
Setting [2] is: dose: 3.0 mg/kg/injection, schedule: Q01DX009 (ip), vehicle: Klucel (hydroxypropylcellulose) (HPC).
The mark [3] stands for this setting: dose: 50.0 mg/kg/injection, schedule: Q01DX001 (ip), vehicle: saline.

Where “and” joins values, the source holds several entries; their conditions need not be identical. Identical values can stand only once. Inconclusive results and toxic doses are left out.

14 compounds from PubChem BioAssay AID328 (DTP/NCI, 2004) can be followed below.

In the case of `O=C1C=CC(=Nc2ccc3c(c2)C(Br)c2ccccc2-3)O1` (stereo not drawn), the T/C is, setting by setting: (dose: 2.25 mg/kg/injection, schedule: Q01DX009 (ip), vehicle: saline) 100 % of control; (dose: 4.5 mg/kg/injection, schedule: Q01DX009 (ip), vehicle: saline) 100 % of control; (dose: 9.0 mg/kg/injection, schedule: Q01DX009 (ip), vehicle: saline) 100 % of control; (dose: 13.0 mg/kg/injection, schedule: Q01DX009 (ip), vehicle: saline) 105 % of control; (dose: 20.0 mg/kg/injection, schedule: Q01DX009 (ip), vehicle: saline) 100 % of control; (dose: 30.0 mg/kg/injection, schedule: Q01DX009 (ip), vehicle: saline) 120 % of control. For the same compound, the T/C (dose: 95.0 mg/kg/injection, schedule: Q04DX003 (ip), vehicle: saline) was 109 % of control and the T/C (dose: 145.0 mg/kg/injection, schedule: Q04DX003 (ip), vehicle: saline) was 118 % of control.

For `C1CCCC(NC2=NCCO2)CCC1`, the T/C is 100 % of control (dose: 6.25 mg/kg/injection, schedule: Q04DX003 (ip), vehicle: saline with Tween-80); 109 % of control (dose: 12.5 mg/kg/injection, schedule: Q04DX003 (ip), vehicle: saline with Tween-80); 95 % of control (dose: 25.0 mg/kg/injection, schedule: Q04DX003 (ip), vehicle: saline with Tween-80).

Regarding `NC(CCl)=NC1CCCCC1`, the T/C is 102 % of control under setting [1]; 121 % of control (dose: 22.0 mg/kg/injection, schedule: Q04DX003 (ip), vehicle: saline); 117 % of control (dose: 25.0 mg/kg/injection, schedule: Q04DX003 (ip), vehicle: saline); 96 % of control (dose: 75.0 mg/kg/injection, schedule: Q04DX003 (ip), vehicle: saline); 88 % of control (dose: 100.0 mg/kg/injection, schedule: Q04DX003 (ip), vehicle: saline).

As to `CCOC(=O)/C=C(\C)Nc1ccc(NC(C)=O)cc1`, the T/C runs as follows: (dose: 25.0 mg/kg/injection, schedule: Q01DX009 (ip), vehicle: water) 91 % of control; (dose: 50.0 mg/kg/injection, schedule: Q01DX009 (ip), vehicle: water) 89 % of control; (dose: 50.0 mg/kg/injection, schedule: Q04DX003 (ip), vehicle: water) 106 % of control; (dose: 100.0 mg/kg/injection, schedule: Q01DX009 (ip), vehicle: water) 94 % of control; (dose: 100.0 mg/kg/injection, schedule: Q04DX003 (ip), vehicle: water) 111 % of control; (dose: 200.0 mg/kg/injection, schedule: Q01DX009 (ip), vehicle: water) 110 % of control. For the same compound, the T/C (dose: 200.0 mg/kg/injection, schedule: Q04DX003 (ip), vehicle: water) is 120 % of control; the T/C (dose: 400.0 mg/kg/injection, schedule: Q01DX009 (ip), vehicle: water) was 94 % of control; the T/C (dose: 400.0 mg/kg/injection, schedule: Q04DX003 (ip), vehicle: water) was 103 % of control.

As to `CC(=N\O)/C(C)=N/O.CC(=N\O)/C(C)=N/O.[Cu]`, the T/C is 100 % of control under setting [2]; 118 % of control (dose: 6.25 mg/kg/injection, schedule: Q04DX003 (ip), vehicle: Klucel (hydroxypropylcellulose) (HPC)); 118 % of control (dose: 12.5 mg/kg/injection, schedule: Q04DX003 (ip), vehicle: Klucel (hydroxypropylcellulose) (HPC)).

Consider `N=C(N)SCc1ccccc1`, for which the T/C under setting [3] is 98 % of control.

With `CO[C@H](C)[C@@](O)(C(=O)OCC1=CCN2CCC[C@@H]12)C(C)C`, the T/C runs as follows: (dose: 20.0 mg/kg/injection, schedule: Q01DX010 (ip), vehicle: carboxymethylcellulose (CMC)) 95 % of control; (dose: 40.0 mg/kg/injection, schedule: Q01DX010 (ip), vehicle: carboxymethylcellulose (CMC)) 115 % of control; (dose: 80.0 mg/kg/injection, schedule: Q01DX010 (ip), vehicle: carboxymethylcellulose (CMC)) 110 % of control.

As to `O=P(N1CCCC1)(N1CC1)N1CC1`, the T/C (dose: 0.74 mg/kg/injection, schedule: Q01DX009 (ip), vehicle: saline) is 89 % of control; the T/C (dose: 1.11 mg/kg/injection, schedule: Q01DX009 (ip), vehicle: saline) was 98 % of control; the T/C (dose: 1.67 mg/kg/injection, schedule: Q01DX009 (ip), vehicle: saline) is 121 % of control; the T/C (dose: 2.2 mg/kg/injection, schedule: Q01DX009 (ip), vehicle: saline) is 205 % of control; the T/C (dose: 2.2 mg/kg/injection, schedule: Q04DX003 (ip), vehicle: saline) is 113 % of control; the T/C (dose: 2.5 mg/kg/injection, schedule: Q01DX009 (ip), vehicle: saline) was 180 % of control. Moreover, the T/C is, setting by setting: (dose: 3.3 mg/kg/injection, schedule: Q01DX009 (ip), vehicle: saline) 255 % of control; (dose: 5.0 mg/kg/injection, schedule: Q01DX009 (ip), vehicle: saline) 268 % of control and 317 % of control; (dose: 5.56 mg/kg/injection, schedule: Q04DX003 (ip), vehicle: saline) 150 % of control; (dose: 7.5 mg/kg/injection, schedule: Q01DX009 (ip), vehicle: saline) 112 % of control; (dose: 7.5 mg/kg/injection, schedule: Q04DX003 (ip), vehicle: saline) 182 % of control; (dose: 8.33 mg/kg/injection, schedule: Q04DX003 (ip), vehicle: saline) 204 % of control. The T/C was 240 % of control and 250 % of control under setting [1]; 272 % of control (dose: 18.7 mg/kg/injection, schedule: Q04DX003 (ip), vehicle: saline).

For `CCC[CH2][Sn-]([CH2]CCC)([CH2]CCC)[O]c1cc(Cl)c(Cl)cc1Cl`, the T/C is 100 % of control (dose: 0.37 mg/kg/injection, schedule: Q01DX009 (ip), vehicle: Klucel (hydroxypropylcellulose) (HPC)); 100 % of control (dose: 0.75 mg/kg/injection, schedule: Q01DX009 (ip), vehicle: Klucel (hydroxypropylcellulose) (HPC)); 100 % of control (dose: 1.5 mg/kg/injection, schedule: Q01DX009 (ip), vehicle: Klucel (hydroxypropylcellulose) (HPC)); 110 % of control under setting [2]; 89 % of control (dose: 6.0 mg/kg/injection, schedule: Q01DX009 (ip), vehicle: Klucel (hydroxypropylcellulose) (HPC)).

For the compound `O=S(=O)(c1ccccc1)N1CN2CCN(C2)C1`, the T/C reads like this: (dose: 50.0 mg/kg/injection, schedule: Q01DX009 (ip), vehicle: saline with Tween-80) 107 % of control; (dose: 100.0 mg/kg/injection, schedule: Q01DX009 (ip), vehicle: saline with Tween-80) 124 % of control.

`O=c1cc(Cl)c(=O)[nH][nH]1`: the T/C is 101 % of control under setting [3]; 118 % of control (dose: 100.0 mg/kg/injection, schedule: Q01DX001 (ip), vehicle: saline); 100 % of control (dose: 100.0 mg/kg/injection, schedule: Q04DX003 (ip), vehicle: saline with Tween-80); 98 % of control (dose: 200.0 mg/kg/injection, schedule: Q01DX001 (ip), vehicle: saline); 91 % of control (dose: 200.0 mg/kg/injection, schedule: Q04DX003 (ip), vehicle: saline with Tween-80); 91 % of control (dose: 400.0 mg/kg/injection, schedule: Q04DX003 (ip), vehicle: saline with Tween-80).

Turning to `CCC(=O)N(C)[C@@H](C)C(=O)O[C@H]1CC(=O)N(C)c2cc(cc(OC)c2Cl)C/C(C)=C/C=C[C@@H](OC)[C@@]2(O)C[C@H](OC(=O)N2)[C@@H](C)[C@@H]2O[C@@]12C`, the T/C reads like this: (dose: 0.2 micrograms/kg/injection, schedule: Q01DX009 (ip), vehicle: saline) 120 % of control; (dose: 1.6 micrograms/kg/injection, schedule: Q01DX009 (ip), vehicle: saline) 154 % of control; (dose: 3.1 micrograms/kg/injection, schedule: Q01DX009 (ip), vehicle: saline) 150 % of control; (dose: 12.5 micrograms/kg/injection, schedule: Q01DX009 (ip), vehicle: saline) 104 % of control.

As for `Cc1ccc(N2CCN(C3=CCC(C(C)C)CC3)CC2)cc1Cl` (stereo not drawn), the T/C reads like this: (dose: 100.0 mg/kg/injection, schedule: Q01DX001 (ip), vehicle: saline with Tween-80) 105 % of control; (dose: 200.0 mg/kg/injection, schedule: Q01DX001 (ip), vehicle: saline with Tween-80) 105 % of control.

With `CC(C)(C)P(O)(=S)c1ccccc1` (stereo not drawn) (tested in a mixture with another compound), the T/C runs as follows: (dose: 50.0 mg/kg/injection, schedule: Q01DX005 (ip), vehicle: saline) 94 % of control; (dose: 100.0 mg/kg/injection, schedule: Q01DX005 (ip), vehicle: saline) 93 % of control; (dose: 200.0 mg/kg/injection, schedule: Q01DX005 (ip), vehicle: saline) 100 % of control.
